Test results taken from patent publication US9198846B2, “Basic amino acid derivative” (AJINOMOTO CO., INC., priority 2012, dated 2015).

Experiment: Gelling ability of basic amino acid derivatives (test tube tilting, visual appearance)
Type: physicochemical
Parameters: key to gel appearance: GT: transparent gel; GTL: translucent gel; GO: opaque gel
Conditions: heated to 100° C., stood at 25° C. for 2 hr
Description: The gelling ability of various basic amino acid derivatives prepared in Production Examples 1-4, 7, 9 and 10 was confirmed. Test tube equipped with a cover was filled with water, saline, phosphate buffered saline (hereinafter indicated as PBS), and aqueous NaCl solution or aqueous KCl solution, and a basic amino acid derivative was added at various concentrations. The mixture was heated to 100° C. to achieve homogeneous dissolution, and stood at 25° C. for 2 hr. After allowing to cool, the test tube was tilted, and the absence of fluidity was judged as gellation, and the appearance was visually observed.
Abbreviations mean the following. • GT: transparent gel • GTL: translucent gel • GO: opaque gel

For CCCCCCCCCCCC(=O)NCCCC[C@H](NC(=O)CC(CCCCCCCCCC)C(=O)[O-])C(=O)O.[Na+] (stereo partly drawn) [Production Example 3, N^ε-lauroyl-N^α-(3-carboxytridecanoyl)-L-lysine monosodium salt], the gel appearance (0.1M aqueous KCl solution) was “GTL”, the minimum gelling concentration (0.1M aqueous KCl solution) was 20 g/L and the gel appearance (0.1M aqueous NaCl solution) was “GTL”. The minimum gelling concentration (0.1M aqueous NaCl solution) was 20 g/L, the gel appearance (1.0M aqueous KCl solution) was “GO” and the minimum gelling concentration (1.0M aqueous KCl solution) was 20 g/L. The gel appearance (PBS) was “GO”, the minimum gelling concentration (PBS) was 60 g/L and the gel appearance (saline) was “GTL”. For the same compound, the minimum gelling concentration (saline) was 50 g/L, the gel appearance (water) was “GTL” and the minimum gelling concentration (water) was 50 g/L.

In the case of CCCCCCCCCCCC(=O)NCCCC[C@H](NC(=O)CCCCCCCCC(=O)[O-])C(=O)O.[Na+] [Production Example 9, N^ε-lauroyl-N^α-(9-carboxynonanoyl)-L-lysine monosodium salt], the gel appearance (0.1M aqueous KCl solution) is reported as “GT”, the minimum gelling concentration (0.1M aqueous KCl solution) is reported as 4 g/L and the gel appearance (0.1M aqueous NaCl solution) is reported as “GT”. For the same compound, the minimum gelling concentration (0.1M aqueous NaCl solution) was 4 g/L, the gel appearance (1.0M aqueous KCl solution) was “GT” and the minimum gelling concentration (1.0M aqueous KCl solution) was 4 g/L. For the same compound, the gel appearance (1.0M aqueous NaCl solution) was “GT”, the minimum gelling concentration (1.0M aqueous NaCl solution) was 4 g/L and the gel appearance (PBS) was “GT”. For the same compound, the minimum gelling concentration (PBS) was 4 g/L, the gel appearance (saline) was “GT” and the minimum gelling concentration (saline) was 4 g/L. For the same compound, the gel appearance (water) was “GTL” and the minimum gelling concentration (water) was 30 g/L.

In the case of CCCCCCCCCCCC(=O)NCCCC[C@H](NC(=O)CC(CCCCCCCCCC)C(=O)[O-])C(=O)OCC.[K+] (stereo partly drawn) [Production Example 2, N^ε-lauroyl-N^α-(3-carboxytridecanoyl)-L-lysine ethyl ester potassium salt], the gel appearance (0.1M aqueous KCl solution) is reported as “GTL”, the minimum gelling concentration (0.1M aqueous KCl solution) is reported as 10 g/L and the gel appearance (0.1M aqueous NaCl solution) is reported as “GTL”. For the same compound, the minimum gelling concentration (0.1M aqueous NaCl solution) was 10 g/L, the gel appearance (saline) was “GTL” and the minimum gelling concentration (saline) was 20 g/L. For the same compound, the gel appearance (water) was “GTL” and the minimum gelling concentration (water) was 20 g/L.

For CCCCCCCCCCCC(=O)NCCCC[C@H](NC(=O)CC(CCCCCCCCCC)C(=O)[O-])C(=O)OCC.[Na+] (stereo partly drawn) [Production Example 1, N^ε-lauroyl-N^α-(3-carboxytridecanoyl)-L-lysine ethyl ester sodium salt], the gel appearance (0.1M aqueous KCl solution) was “GTL”, the minimum gelling concentration (0.1M aqueous KCl solution) was 15 g/L and the gel appearance (0.1M aqueous NaCl solution) was “GTL”. For the same compound, the minimum gelling concentration (0.1M aqueous NaCl solution) was 10 g/L, the gel appearance (saline) was “GTL” and the minimum gelling concentration (saline) was 20 g/L. For the same compound, the gel appearance (water) was “GTL” and the minimum gelling concentration (water) was 25 g/L.

With CCCCCCCCCCCC(=O)NCCCC[C@H](NC(=O)CC(CCCCCCCCCC)C(=O)[O-])C(=O)O.[K+] (stereo partly drawn) [Production Example 4, N^ε-lauroyl-N^α-(3-carboxytridecanoyl)-L-lysine monopotassium salt] the gel appearance (0.1M aqueous KCl solution) was “GTL”, the minimum gelling concentration (0.1M aqueous KCl solution) was 40 g/L and the gel appearance (0.1M aqueous NaCl solution) was “GTL”. For the same compound, the minimum gelling concentration (0.1M aqueous NaCl solution) was 20 g/L, the gel appearance (1.0M aqueous KCl solution) was “GO” and the minimum gelling concentration (1.0M aqueous KCl solution) was 20 g/L. The gel appearance (PBS) was “GO”, the minimum gelling concentration (PBS) was 60 g/L and the gel appearance (saline) was “GTL”. The minimum gelling concentration (saline) was 50 g/L, the gel appearance (water) was “GTL” and the minimum gelling concentration (water) was 60 g/L.

With CCCCCCCCCCCC(=O)NCCCC[C@H](NC(=O)CCCCCCC(=O)[O-])C(=O)O.[Na+] [Production Example 7, N^ε-lauroyl-N^α-(7-carboxyheptanoyl)-L-lysine monosodium salt] the gel appearance (0.1M aqueous KCl solution) was “GT”, the minimum gelling concentration (0.1M aqueous KCl solution) was 30 g/L and the gel appearance (0.1M aqueous NaCl solution) was “GTL”. The minimum gelling concentration (0.1M aqueous NaCl solution) was 30 g/L, the gel appearance (1.0M aqueous KCl solution) was “GT” and the minimum gelling concentration (1.0M aqueous KCl solution) was 4 g/L. The gel appearance (1.0M aqueous NaCl solution) was “GT”, the minimum gelling concentration (1.0M aqueous NaCl solution) was 4 g/L and the gel appearance (PBS) was “GT”. For the same compound, the minimum gelling concentration (PBS) was 30 g/L, the gel appearance (saline) was “GT” and the minimum gelling concentration (saline) was 30 g/L.

With CCCCCCCCCCCC(=O)NCCCC[C@H](NC(=O)CCCCCCCCC(=O)[O-])C(=O)O.[K+] [Production Example 10, N^ε-lauroyl-N^α-(9-carboxynonanoyl)-L-lysine monopotassium salt] the gel appearance (0.1M aqueous KCl solution) was “GT”, the minimum gelling concentration (0.1M aqueous KCl solution) was 4 g/L and the gel appearance (0.1M aqueous NaCl solution) was “GT”. For the same compound, the minimum gelling concentration (0.1M aqueous NaCl solution) was 10 g/L, the gel appearance (1.0M aqueous KCl solution) was “GT” and the minimum gelling concentration (1.0M aqueous KCl solution) was 4 g/L. For the same compound, the gel appearance (1.0M aqueous NaCl solution) was “GT”, the minimum gelling concentration (1.0M aqueous NaCl solution) was 4 g/L and the gel appearance (PBS) was “GT”. For the same compound, the minimum gelling concentration (PBS) was 4 g/L, the gel appearance (saline) was “GT” and the minimum gelling concentration (saline) was 4 g/L. For the same compound, the gel appearance (water) was “GTL” and the minimum gelling concentration (water) was 30 g/L.
